Paper PMC8381505, “Phase 1 clinical trial of the PI3Kδ inhibitor YY-20394 in patients with B-cell hematological malignancies” (Journal of Hematology & Oncology, 2021)
Where two headings read alike, the source gives them in different places.

Columns and labels:
[1] = tested on: relapsed or refractory B-cell malignancies; assay: Phase 1 dose escalation: efficacy (ORR, DCR, PFS) in patients; format: in vivo, human
Description: Patients ≥ 18 years old with refractory or relapsed B-cell malignancies were enrolled from November, 2017 to completion of the trial in November, 2019. Inclusion and exclusion criteria are listed in Additional file 2 and baseline patient characteristics in Additional file 3: Table S2.
During dose escalation, patients received YY-20394 tablets q.d. at dosages of 20, 40, 80, 140 or 200 mg. The maximum tolerated dose (MTD), dose escalation phase and dose-limiting toxicity (DLT) as well as hematological toxicity classifications are described in Additional file 4. The primary endpoints were safety, tolerability and the MTD of YY-20394. Secondary endpoints were PK parameters and efficacy. Response criteria followed the revised International Research Working Group (IRWG) for non-Hodgkin lymphomas (NHL), and the International Working Group on Chronic Lymphocytic Leukemia (IWCLL) criteria for CLL [8]. Efficacy determinations were the objective response rate (ORR), disease control rate (DCR), complete remission (CR), partial remission (PR), stable disease (SD), progressive disease (PD) and progression-free survival (PFS).

[2] = tested on: PI3Kγ
[3] = tested on: basophil activation; assay: Inhibition of basophil activation in vitro; format: cell-based; conditions: at the serum concentration produced by the 80 mg dose level
[4] = Pharmacokinetics in patients after multiple administrations; format: in vivo, human; conditions: for AUC(0-inf) / AUC(0-t) / Cmax / Tmax / Vd/F / half-life / MRT last: human, serum, oral; for MRT last: read-out: MRT0→t
Source text: Additional File 6: Table S4. Mean pharmacokinetic parameters of patients after multiple administrations in each dosage group

[5] = number of patients of 25 evaluable

Compound: COc1ncc(-c2nc(N3CCOCC3)nc3c(CN4CCC(C(C)(C)O)CC4)cc(F)cc23)cc1NS(C)(=O)=O [YY-20394, N-[5-[6-fluoro-8-[[4-(1-hydroxy-1-methylethyl)-1-piperidinyl]methyl]-2-(4-morpholinyl)-4-quinazolinyl]-2-methoxy-3-pyridinyl]-methanesulfonamide]
- complete remission (CR) [1, 5]: 5
- partial remission (PR) [1, 5]: 11
- progressive disease (PD) [1, 5]: 7
- durable response ([1]; one PR patient with CLL/SLL, 40 mg q.d.): around 36 months
- Ratio of IC50 γ/δ [2]: 1125
- kinase inhibition profile more PI3Kδ-selective ([2]; PI3Kδ versus PI3Kγ, compared with idelalisib): ~2 orders of magnitude
- inhibition of basophil activation in vitro [3]: 90%
- CL/F ([4]; 20 mg, mean): 16.3 L/h
- Cmin ([4]; 20 mg, mean): 28.7 ng/mL
- Css ([4]; 20 mg, mean): 51.0 ng/mL
- CL/F ([4]; 40 mg, mean ± SD): 13.4 ± 3.7 L/h
- Cmin ([4]; 40 mg, mean ± SD): 73.0 ± 32.5 ng/mL
- Css ([4]; 40 mg, mean ± SD): 132.7 ± 43.0 ng/mL
- CL/F ([4]; 80 mg, mean ± SD): 11.1 ± 3.1 L/h
- Cmin ([4]; 80 mg, mean ± SD): 180.5 ± 74.5 ng/mL
- Css ([4]; 80 mg, mean ± SD): 325.7 ± 97.8 ng/mL
- CL/F ([4]; 140 mg, mean ± SD): 9.1 ± 0.6 L/h
- Cmin ([4]; 140 mg, mean ± SD): 359.6 ± 31.5 ng/mL
- Css ([4]; 140 mg, mean ± SD): 642.3 ± 40.2 ng/mL
- CL/F ([4]; 200 mg, mean ± SD): 9.4 ± 2.2 L/h
- Cmin ([4]; 200 mg, mean ± SD): 472.4 ± 71.6 ng/mL
- Css ([4]; 200 mg, mean ± SD): 918.6 ± 201.7 ng/mL
- exposure (Cmax, AUC0-t, AUC0-∞) versus dose ([4]; 20 to 200 mg): increased with dosage
- AUC(0-inf) ([4]; 20 mg, mean): 4010 ng·h/mL
- AUC(0-t) ([4]; 20 mg, mean): 1220 ng·h/mL
- Cmax ([4]; 20 mg, mean): 94.6 ng/mL
- Tmax ([4]; 20 mg, mean): 4 h
- Vd/F ([4]; 20 mg, mean): 930 L
- half-life ([4]; 20 mg, mean): 2370 min
- MRT last ([4]; 20 mg, mean): 65.7 h
- AUC(0-inf) ([4]; 40 mg, mean ± SD): 5500 ng·h/mL
- AUC(0-t) ([4]; 40 mg, mean ± SD): 3190 ng·h/mL
- Cmax ([4]; 40 mg, mean ± SD): 208 ± 58.3 ng/mL
- Tmax ([4]; 40 mg, mean ± SD): 2.7 ± 1.2 h
- Vd/F ([4]; 40 mg, mean ± SD): 392 ± 228 L
- half-life ([4]; 40 mg, mean ± SD): 1180 ± 432 min
- MRT last ([4]; 40 mg, mean ± SD): 28.1 ± 10.5 h
- AUC(0-inf) ([4]; 80 mg, mean ± SD): 16600 ng·h/mL
- AUC(0-t) ([4]; 80 mg, mean ± SD): 7820 ng·h/mL
- Cmax ([4]; 80 mg, mean ± SD): 529 ± 170 ng/mL
- Tmax ([4]; 80 mg, mean ± SD): 2.4 ± 1.7 h
- Vd/F ([4]; 80 mg, mean ± SD): 388 ± 392 L
- half-life ([4]; 80 mg, mean ± SD): 1520 ± 1530 min
- MRT last ([4]; 80 mg, mean ± SD): 36.4 ± 37.6 h
- AUC(0-inf) ([4]; 140 mg, mean ± SD): 24300 ng·h/mL
- AUC(0-t) ([4]; 140 mg, mean ± SD): 15400 ng·h/mL
- Cmax ([4]; 140 mg, mean ± SD): 1190 ng/mL
- Tmax ([4]; 140 mg, mean ± SD): 3.7 ± 2.5 h
- Vd/F ([4]; 140 mg, mean ± SD): 215 ± 10 L
- half-life ([4]; 140 mg, mean ± SD): 984 ± 18 min
- MRT last ([4]; 140 mg, mean ± SD): 23.4 ± 1.5 h
- AUC(0-inf) ([4]; 200 mg, mean ± SD): 36300 ng·h/mL
- AUC(0-t) ([4]; 200 mg, mean ± SD): 22000 ng·h/mL
- Cmax ([4]; 200 mg, mean ± SD): 1610 ng/mL
- Tmax ([4]; 200 mg, mean ± SD): 2 ± 1.5 h
- Vd/F ([4]; 200 mg, mean ± SD): 239 ± 110 L
- half-life ([4]; 200 mg, mean ± SD): 1050 ± 378 min
- MRT last ([4]; 200 mg, mean ± SD): 25.3 ± 8.8 h
